Experimental data: patent EP0655506B1 (priority 1994, dated 1995)

How the values were obtained:
Test in all cases: Gel electrophoresis-based rate of incorporation of dideoxynucleotides relative to deoxynucleotides, varying the ratio of dNTPs to ddNTPs (Example 7)
T7 DNA polymerase Y526F = target: T1, T7 DNA polymerase Y526F (Escherichia phage T7, UniProt P00581, DEL118-145/Y526F); format: biochemical, bacteriophage T7; settings: 10 µM 4 dNTPs, ddNTP 100 to 2,000 µM; ddNTP:dNTP ratio giving fragments comparable to T7 DNA polymerase, multiplied by its Example 6 ratio
T1 construct: made in house; host or cells: strain that produces E. coli thioredoxin (lac promoter)
T1 sequence (P00581 other isoform, or with tags, fused parts or gaps DEL118-145/Y526F): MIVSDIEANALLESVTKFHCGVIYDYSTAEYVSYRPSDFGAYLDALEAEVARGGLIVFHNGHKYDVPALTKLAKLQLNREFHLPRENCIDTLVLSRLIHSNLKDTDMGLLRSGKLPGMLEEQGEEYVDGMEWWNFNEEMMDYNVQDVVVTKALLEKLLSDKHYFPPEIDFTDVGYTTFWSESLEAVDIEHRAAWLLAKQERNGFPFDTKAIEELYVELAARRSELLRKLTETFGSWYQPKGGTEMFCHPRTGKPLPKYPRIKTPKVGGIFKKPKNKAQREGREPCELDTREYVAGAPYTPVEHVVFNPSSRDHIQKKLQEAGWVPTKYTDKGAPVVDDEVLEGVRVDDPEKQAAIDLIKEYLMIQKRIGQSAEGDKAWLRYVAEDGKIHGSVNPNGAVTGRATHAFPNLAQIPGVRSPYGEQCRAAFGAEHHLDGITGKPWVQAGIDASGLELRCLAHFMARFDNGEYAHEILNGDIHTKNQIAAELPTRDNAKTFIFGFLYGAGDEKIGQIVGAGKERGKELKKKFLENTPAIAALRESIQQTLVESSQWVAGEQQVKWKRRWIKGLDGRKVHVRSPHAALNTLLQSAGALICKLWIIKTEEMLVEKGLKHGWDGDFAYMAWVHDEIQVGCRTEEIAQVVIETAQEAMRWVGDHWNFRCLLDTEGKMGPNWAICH
T1 sequence (P0AA25 2-109, stated change not applied, further chain): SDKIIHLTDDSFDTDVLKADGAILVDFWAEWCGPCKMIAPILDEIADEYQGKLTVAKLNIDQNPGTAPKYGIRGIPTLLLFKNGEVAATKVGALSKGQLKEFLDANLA
Experimental: (§1) This example is similar to that described in Example 6. While it is the preferred test for DNA polymerases that discriminate strongly against the incorporation of dideoxynucleotides (e.g. T7 DNA polymerase Y526F, E. coli DNA polymerase I and Taq DNA polymerase), it also works well with DNA polymerases that efficiently incorporate ddNMPs (e.g. T7 DNA polymerase, E. coli DNA polymerase I mutant F762Y and Taq DNA polymerase mutant F667Y).
(§2) The average length of a series of fragments is determined in one of two ways. […] The position of the front marking the appearance of visible radioactive bands is usually relatively sharp and readily observed by eye. However, it is also possible to determine such positions more precisely using the Phosphoimager to locate the position in each lane where a certain threshold of radioactivity per unit area occurs, starting at the top of the gel and moving down the gel.
(§3) Some DNA polymerases discriminate very strongly against the incorporation of dideoxynucleotides, in which case it is difficult to add sufficient ddNTPs to the reaction to clearly detect the position of the largest dideoxy-terminated fragments on a denaturing polyacrylamide gel. For such DNA polymerases, one can use an alkaline agarose gel electrophoresis to compare the lengths of the dideoxy-terminated fragments in the different series.
(§4) These tests were carried out using the six DNA polymerases described in Example 6. The reaction conditions were identical to that described in Example 6 except for the concentrations of dNTPs and ddNTPs. All reaction mixtures contained 10 µM 4 dNTPs. Each of the four ddNTP concentrations were varied by two-fold increments in the following ranges for the six DNA polymerases as follows: T7 DNA polymerase, E. coli DNA polymerase I F762Y, and Taq DNA polymerase F667Y , 0.02 µM to 1 µM, and T7 DNA polymerase Y526F, E. coli DNA polymerase I and Taq DNA polymerase, 100 to 2,000 µM. The reactions were carried out and the samples were analyzed by denaturing polyacrylamide gel electrophoresis as described in Example 6. Drying of the gel, autoradiography, and Phosphoimager analysis were as described in Example 6. The Table below summarizes the results from this experiment; the values shown for T7 DNA polymerase, E. coli DNA polymerase I F762Y, and Taq DNA polymerase F667Y are the absolute ratios obtained in Example 6 by statistical analysis of the rate of exponential decay in intensity of dideoxy-terminated fragments obtained using a 1:1 ratio of dNTPs to ddNTPs. […] This factor was multiplied by the absolute ratios obtained for T7 DNA polymerase, E. coli DNA polymerase I F762Y, and Taq DNA polymerase F667Y in Example 6 in order to obtain the values shown below for T7 DNA polymerase Y526F, E. coli DNA polymerase I and Taq DNA polymerase, respectively.

[1] = target: T2, Taq DNA polymerase (unmodified DNA polymerase from Thermus aquaticus) (Thermus aquaticus, UniProt P19821); format: biochemical; settings: 10 µM 4 dNTPs, ddNTP 100 to 2,000 µM; ddNTP:dNTP ratio giving fragments comparable to Taq DNA polymerase F667Y, multiplied by its Example 6 ratio
T2 construct: to the gene that produces the full length Taq DNA polymerase; made in house
T2 sequence (P19821 whole entry, the tested form may be a part): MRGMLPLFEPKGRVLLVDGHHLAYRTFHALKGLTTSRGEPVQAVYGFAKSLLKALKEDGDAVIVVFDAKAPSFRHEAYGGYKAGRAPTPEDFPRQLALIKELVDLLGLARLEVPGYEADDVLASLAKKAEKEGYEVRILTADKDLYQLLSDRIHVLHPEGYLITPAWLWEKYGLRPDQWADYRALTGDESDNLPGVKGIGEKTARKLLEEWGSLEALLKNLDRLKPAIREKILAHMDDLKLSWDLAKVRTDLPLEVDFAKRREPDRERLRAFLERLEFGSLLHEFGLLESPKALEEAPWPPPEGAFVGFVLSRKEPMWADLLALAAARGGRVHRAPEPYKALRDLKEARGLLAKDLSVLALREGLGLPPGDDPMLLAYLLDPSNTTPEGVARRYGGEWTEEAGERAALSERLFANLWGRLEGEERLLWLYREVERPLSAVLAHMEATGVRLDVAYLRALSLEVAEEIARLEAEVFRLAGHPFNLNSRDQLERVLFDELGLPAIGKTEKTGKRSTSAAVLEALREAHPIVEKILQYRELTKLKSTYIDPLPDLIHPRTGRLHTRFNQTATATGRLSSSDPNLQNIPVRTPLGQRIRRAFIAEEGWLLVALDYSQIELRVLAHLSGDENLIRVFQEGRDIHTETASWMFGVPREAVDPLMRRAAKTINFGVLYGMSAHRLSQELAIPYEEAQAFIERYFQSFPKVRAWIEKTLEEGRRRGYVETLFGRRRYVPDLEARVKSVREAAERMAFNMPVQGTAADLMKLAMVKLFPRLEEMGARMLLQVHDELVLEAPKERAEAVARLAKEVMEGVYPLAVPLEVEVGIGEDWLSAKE
Experimental: as §1, §2, §3, §4

[2] = target: T3, E. coli DNA polymerase I (large fragment, Klenow fragment), wild type (Escherichia coli, UniProt P00582); format: biochemical; settings: 10 µM 4 dNTPs, ddNTP 100 to 2,000 µM; ddNTP:dNTP ratio giving fragments comparable to E. coli DNA polymerase I F762Y, multiplied by its Example 6 ratio
T3 construct: The large fragment of E. coli DNA polymerase I, commonly called the Klenow fragment; made in house
T3 sequence (P00582 324-928): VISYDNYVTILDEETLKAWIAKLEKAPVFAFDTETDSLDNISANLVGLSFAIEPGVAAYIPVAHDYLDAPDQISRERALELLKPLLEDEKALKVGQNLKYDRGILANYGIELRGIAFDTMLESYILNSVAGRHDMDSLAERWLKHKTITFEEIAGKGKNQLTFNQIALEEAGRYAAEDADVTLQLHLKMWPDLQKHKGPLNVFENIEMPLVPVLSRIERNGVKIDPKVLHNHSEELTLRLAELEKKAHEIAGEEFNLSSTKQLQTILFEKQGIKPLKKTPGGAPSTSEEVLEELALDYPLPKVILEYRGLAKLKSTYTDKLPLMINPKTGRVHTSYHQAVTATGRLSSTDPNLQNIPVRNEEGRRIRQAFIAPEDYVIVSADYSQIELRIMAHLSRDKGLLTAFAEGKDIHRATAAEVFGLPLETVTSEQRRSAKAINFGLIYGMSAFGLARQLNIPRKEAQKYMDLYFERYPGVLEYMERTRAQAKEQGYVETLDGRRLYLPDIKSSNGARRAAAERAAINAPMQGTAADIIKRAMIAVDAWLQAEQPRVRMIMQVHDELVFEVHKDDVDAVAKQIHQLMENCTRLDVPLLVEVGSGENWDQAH
Experimental: as §1, §2, §3, §4

Row | SMILES | Incorporation Rate Ratios (dN/ddN) (T7 DNA polymerase Y526F) | Incorporation Rate Ratios (dN/ddN) [1] | Incorporation Rate Ratios (dN/ddN) [2]
1 | Nc1ncnc2c1ncn2[C@H]1CC[C@@H](COP(=O)(O)OP(=O)(O)OP(=O)(O)O)O1 [ddATP] | 7,300 | 4,700 | 720
2 | Nc1ccn([C@H]2CC[C@@H](COP(=O)(O)OP(=O)(O)OP(=O)(O)O)O2)c(=O)n1 [ddCTP] | 11,000 | 2,600 | 250
3 | Nc1nc2c(ncn2[C@H]2CC[C@@H](COP(=O)(O)OP(=O)(O)OP(=O)(O)O)O2)c(=O)[nH]1 [ddGTP] | 6,400 | 1,400 | 140
4 | Cc1cn([C@H]2CC[C@@H](COP(=O)(O)OP(=O)(O)OP(=O)(O)O)O2)c(=O)[nH]c1=O [ddTTP] | 8,400 | 4,500 | 1,100
